± gives the expanded uncertainty stated by the source.
Test: mn = molality of the nth substance listed, in mol/kg
Settings: Liquid, Vibrating tube method

[Br-].[Br-].[Zn+2] [zinc bromide] + CCO
Settings	mass density [kg/m3]
298.15 K, 39998 kPa, m1 = 0.1696	842.43 ± 0.69
298.16 K, 5021 kPa, m1 = 1.887	1058.5 ± 0.62
298.16 K, 15032 kPa, m1 = 0.05681	807.29 ± 0.65
298.16 K, 15201 kPa, m1 = 0.9305	937 ± 0.62
298.16 K, 15612 kPa, m1 = 0.1696	825.53 ± 0.65
298.16 K, 15624 kPa, m1 = 0.3043	845.7 ± 0.64
298.16 K, 20014 kPa, m1 = 0.4384	869.08 ± 0.64
298.16 K, 29932 kPa, m1 = 0.3043	856.21 ± 0.66
298.16 K, 34951 kPa, m1 = 0.1696	839.25 ± 0.68
298.16 K, 35026 kPa, m1 = 1.887	1081.92 ± 0.64
298.17 K, 5457 kPa, m1 = 0.3043	837.46 ± 0.63
298.17 K, 25045 kPa, m1 = 0.05681	814.8 ± 0.67
298.17 K, 25140 kPa, m1 = 1.887	1074.74 ± 0.63
298.17 K, 25416 kPa, m1 = 0.1696	832.79 ± 0.66
298.17 K, 35024 kPa, m1 = 0.9305	951.54 ± 0.63
298.17 K, 39854 kPa, m1 = 0.3043	862.75 ± 0.68
313.11 K, 20023 kPa, m1 = 0.1696	817.08 ± 0.66
313.11 K, 39787 kPa, m1 = 1.887	1072.61 ± 0.63
313.12 K, 29927 kPa, m1 = 1.887	1065.27 ± 0.63
313.12 K, 34843 kPa, m1 = 1.887	1069.01 ± 0.63
313.12 K, 39907 kPa, m1 = 0.1696	831.46 ± 0.7
313.13 K, 4920 kPa, m1 = 0.4384	843.98 ± 0.63
313.13 K, 14572 kPa, m1 = 0.1696	812.62 ± 0.65
313.13 K, 24931 kPa, m1 = 0.1696	820.9 ± 0.67
313.13 K, 25016 kPa, m1 = 1.887	1061.4 ± 0.62
313.13 K, 35021 kPa, m1 = 0.05681	810.73 ± 0.7
313.14 K, 5014 kPa, m1 = 0.05681	786.55 ± 0.64
313.14 K, 5102 kPa, m1 = 0.3043	824.32 ± 0.63
313.14 K, 9947 kPa, m1 = 0.9305	919.42 ± 0.62
313.14 K, 29730 kPa, m1 = 0.4384	864.47 ± 0.66
313.14 K, 34690 kPa, m1 = 0.4384	868 ± 0.66
313.14 K, 39625 kPa, m1 = 0.3043	851.54 ± 0.68
313.15 K, 1265 kPa, m1 = 0.05681	783.06 ± 0.63
313.15 K, 1326 kPa, m1 = 0.3043	820.84 ± 0.63
313.15 K, 1425 kPa, m1 = 1.49	988.5 ± 0.62
313.15 K, 5027 kPa, m1 = 1.49	991.85 ± 0.62
313.15 K, 9994 kPa, m1 = 1.887	1048.64 ± 0.62
313.15 K, 10024 kPa, m1 = 0.05681	791.06 ± 0.65
313.15 K, 10245 kPa, m1 = 0.3043	828.9 ± 0.64
313.15 K, 10627 kPa, m1 = 1.49	996.89 ± 0.62
313.15 K, 15329 kPa, m1 = 1.49	1000.98 ± 0.62
313.15 K, 19809 kPa, m1 = 0.9305	927.83 ± 0.63
313.15 K, 19932 kPa, m1 = 0.4384	856.94 ± 0.64
313.15 K, 20014 kPa, m1 = 0.3043	837.09 ± 0.65
313.15 K, 20065 kPa, m1 = 0.05681	799.53 ± 0.67
313.15 K, 20324 kPa, m1 = 1.49	1005.17 ± 0.62
313.15 K, 24735 kPa, m1 = 0.4384	860.72 ± 0.65
313.15 K, 25035 kPa, m1 = 0.9305	932.01 ± 0.63
313.15 K, 25647 kPa, m1 = 1.49	1009.46 ± 0.62
313.15 K, 29901 kPa, m1 = 0.9305	935.73 ± 0.63
313.15 K, 29925 kPa, m1 = 0.1696	824.61 ± 0.68
313.15 K, 29954 kPa, m1 = 1.49	1012.81 ± 0.62
313.15 K, 29964 kPa, m1 = 0.05681	807.13 ± 0.69
313.15 K, 34524 kPa, m1 = 0.3043	848.04 ± 0.67
313.15 K, 34627 kPa, m1 = 1.49	1016.31 ± 0.62
313.15 K, 34851 kPa, m1 = 0.1696	828.08 ± 0.69
313.15 K, 39846 kPa, m1 = 1.49	1020.06 ± 0.62
313.15 K, 39878 kPa, m1 = 0.9305	942.83 ± 0.63
313.15 K, 39881 kPa, m1 = 0.4384	871.49 ± 0.67
313.15 K, 39914 kPa, m1 = 0.05681	814.03 ± 0.72
313.16 K, 1622 kPa, m1 = 0.4384	840.91 ± 0.62
313.16 K, 9861 kPa, m1 = 0.4384	848.44 ± 0.63
313.16 K, 14924 kPa, m1 = 0.4384	852.81 ± 0.64
313.16 K, 15002 kPa, m1 = 0.9305	923.82 ± 0.62
313.16 K, 15021 kPa, m1 = 0.05681	795.37 ± 0.66
313.16 K, 15032 kPa, m1 = 0.3043	833 ± 0.64
313.16 K, 29952 kPa, m1 = 0.3043	844.75 ± 0.67
313.16 K, 34974 kPa, m1 = 0.9305	939.43 ± 0.63
313.17 K, 10022 kPa, m1 = 0.1696	808.74 ± 0.64
313.17 K, 15110 kPa, m1 = 1.887	1053.14 ± 0.62
313.17 K, 20144 kPa, m1 = 1.887	1057.41 ± 0.62
313.17 K, 25481 kPa, m1 = 0.05681	803.78 ± 0.68
313.17 K, 25921 kPa, m1 = 0.3043	841.73 ± 0.66
313.18 K, 4967 kPa, m1 = 0.9305	914.91 ± 0.62
313.19 K, 1520 kPa, m1 = 0.9305	911.69 ± 0.62
313.19 K, 5004 kPa, m1 = 1.887	1044.1 ± 0.62
313.2 K, 1456 kPa, m1 = 0.1696	801 ± 0.63
313.2 K, 4848 kPa, m1 = 0.1696	804.13 ± 0.63
313.24 K, 1850 kPa, m1 = 1.887	1041.15 ± 0.62
333.12 K, 1327 kPa, m1 = 0.1696	782.58 ± 0.63
333.12 K, 1898 kPa, m1 = 0.9305	892.88 ± 0.62
333.12 K, 4943 kPa, m1 = 1.887	1024.22 ± 0.62
333.12 K, 9762 kPa, m1 = 0.4384	830.56 ± 0.63
333.12 K, 19882 kPa, m1 = 0.4384	840.07 ± 0.65
333.12 K, 39840 kPa, m1 = 1.887	1055.35 ± 0.63
333.13 K, 5145 kPa, m1 = 0.05681	769.04 ± 0.64
333.13 K, 24749 kPa, m1 = 0.4384	844.29 ± 0.66
333.13 K, 29989 kPa, m1 = 0.9305	919.06 ± 0.63
333.13 K, 34942 kPa, m1 = 0.9305	922.93 ± 0.63
333.14 K, 5187 kPa, m1 = 0.4384	825.95 ± 0.63
333.14 K, 19787 kPa, m1 = 0.9305	910.38 ± 0.63
333.14 K, 20014 kPa, m1 = 0.3043	820.51 ± 0.66
333.14 K, 25451 kPa, m1 = 0.05681	788.08 ± 0.69
333.14 K, 34776 kPa, m1 = 1.887	1051.46 ± 0.62
333.15 K, 1541 kPa, m1 = 0.05681	765.27 ± 0.63
333.15 K, 1627 kPa, m1 = 0.3043	802.62 ± 0.63
333.15 K, 1698 kPa, m1 = 1.49	969.07 ± 0.62
333.15 K, 4776 kPa, m1 = 0.1696	786.15 ± 0.63
333.15 K, 5045 kPa, m1 = 1.49	972.54 ± 0.62
333.15 K, 5098 kPa, m1 = 0.9305	896.23 ± 0.62
333.15 K, 10025 kPa, m1 = 0.05681	773.96 ± 0.65
333.15 K, 10027 kPa, m1 = 0.9305	901.19 ± 0.62
333.15 K, 10046 kPa, m1 = 1.887	1029.4 ± 0.62
333.15 K, 10624 kPa, m1 = 1.49	978.11 ± 0.62
333.15 K, 15214 kPa, m1 = 1.887	1034.43 ± 0.62
333.15 K, 15326 kPa, m1 = 1.49	982.61 ± 0.62
333.15 K, 15924 kPa, m1 = 0.3043	816.79 ± 0.65
333.15 K, 19921 kPa, m1 = 0.05681	783.27 ± 0.67
333.15 K, 19984 kPa, m1 = 1.49	986.89 ± 0.62
333.15 K, 24658 kPa, m1 = 1.49	991.01 ± 0.62

From the NIST ThermoML archive (doi:10.1016/j.jct.2009.05.004)
